This note sets out measurements from patent US10407409B2, “6-(5-hydroxy-1H-pyrazol-1-yl)nicotinamide inhibitors of PHD” (Takeda Pharmaceutical Company Limited, priority 2013, dated 2019).

The target in assay [1] is PHD2 enzyme (residues 181-417) (Homo sapiens (Human), UniProt Q9GZT9). Description: Inhibition of PHD enzyme (LC/MS peptide hydroxylation assay). In kind it is biochemical. Particulars: PHD2 (residues 181-417) 5 nM, 60 min pre-incubation; -log(IC50), IC50 molar. Put shortly:
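Hydroxylated peptide quantified by LC/MS after 60 min turnover of 1 uM biotinylated peptide with 2 uM 2-oxoglutarate and 1 mM ascorbate, stopped by excess tight-binding inhibitor. Beforehand, 5 nM enzyme and compound were preincubated 60 min at RT, pH 7.3 HEPES/KCl/TCEP/FeCl2/BSA buffer. Values as pIC50 (−log molar IC50).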

For assay [2], the system named is HIF1a protein in H9c2 rat cardiomyocytes. The assay is described as follows: Cell-based HIF-alpha stabilization assay (inhibition of PHD in cells). Particulars: 24 hrs compound incubation, HIF1a protein by ELISA; for EC50: Rattus norvegicus, H9c2, 24 h, read-out: Inhibition of PHD in cells (pEC50) (converted). Summed up: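 HIF1a stabilization was measured by ELISA on lysates of H9c2 rat cardiomyocytes after 24 h exposure to 11 serial compound concentrations, expressed relative to the desferrioxamine maximum. Curve fits gave EC50. EC50pos denotes the concentration producing half the desferrioxamine maximal response.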

Chain of PHD2 enzyme (residues 181-417) (Q9GZT9 181-417): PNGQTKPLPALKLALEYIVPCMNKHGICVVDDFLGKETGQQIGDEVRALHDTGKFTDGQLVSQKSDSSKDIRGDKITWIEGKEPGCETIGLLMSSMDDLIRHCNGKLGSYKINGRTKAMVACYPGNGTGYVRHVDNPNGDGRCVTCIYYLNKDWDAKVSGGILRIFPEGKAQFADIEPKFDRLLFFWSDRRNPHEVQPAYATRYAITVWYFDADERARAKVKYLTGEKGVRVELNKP

With `CCN1CCN(C(=O)c2ccc(-n3ncc(-c4cc(F)c(C#N)cc4C)c3O)nc2)CC1` [Example 306, 4-(1-(5-(4-ethylpiperazine-1-carbonyl)pyridin-2-yl)-5-hydroxy-1H-pyrazol-4-yl)-2-fluoro-5-methylbenzonitrile], the “PHD Inhibition (pIC50)” value in assay [1] is 8.29. For the same molecule, the EC50 in assay [2] is 4570 nM.
The matching figures for `Cc1cc(C#N)ccc1-c1cnn(-c2ccc(C(=O)N3CCN(C)C[C@H]3C)cn2)c1O` [Example 385, (R)-4-(1-(5-(2,4-dimethylpiperazine-1-carbonyl)pyridin-2-yl)-5-hydroxy-1H-pyrazol-4-yl)-3-methylbenzonitrile]: 8.18 and 955 nM.
`Cc1c(-c2cnn(-c3ccc(C(=O)N4CCC[C@H](N(C)CC(F)(F)F)C4)cn3)c2O)ccc(C#N)c1F` [Example 332, (S)-2-fluoro-4-(5-hydroxy-1-(5-(3-(methyl(2,2,2-trifluoroethyl)amino)piperidine-1-carbonyl)pyridin-2-yl)-1H-pyrazol-4-yl)-3-methylbenzonitrile]: the “PHD Inhibition (pIC50)” value in assay [1] was determined as 8.47. In assay [2], the EC50 was 759 nM.
Take `COc1cc(-c2cnn(-c3ccc(C(=O)NCC4CCCCO4)cn3)c2O)ccn1` (stereo not drawn) [Example 48, 6-(5-hydroxy-4-(2-methoxypyridin-4-yl)-1H-pyrazol-1-yl)-N-((tetrahydro-2H-pyran-2-yl)methyl)nicotinamide]: the “PHD Inhibition (pIC50)” value in assay [1] is on record as 8. Besides, the EC50 in assay [2] was 646 nM.
For `Cc1cc(C#N)ccc1-c1cnn(-c2ccc(C(=O)N(C)CC3CCCN(C)C3)cn2)c1O` (stereo not drawn) [Example 361, 6-(4-(4-cyano-2-methylphenyl)-5-hydroxy-1H-pyrazol-1-yl)-N-methyl-N-((1-methylpiperidin-3-yl)methyl)nicotinamide] the same measures were 7.76 and 457 nM.
With `Cc1cc(C#N)ccc1-c1cnn(-c2ccc(C(=O)NC3CN(C)C3)cn2)c1O` [Example 186, 6-(4-(4-cyano-2-methylphenyl)-5-hydroxy-1H-pyrazol-1-yl)-N-(1-methylazetidin-3-yl)nicotinamide], the “PHD Inhibition (pIC50)” value in assay [1] amounted to 7.8. Also, in assay [2], the EC50 was 295 nM.
The matching figures for `COCC(C)(C)NC(=O)c1ccc(-n2ncc(-c3ccc(C#N)cc3C)c2O)nc1` [Example 65, 6-(4-(4-cyano-2-methylphenyl)-5-hydroxy-1H-pyrazol-1-yl)-N-(1-methoxy-2-methylpropan-2-yl)nicotinamide]: 7.08 and 182 nM.
For the molecule `O=C(NCc1ccccc1)c1ccc(-n2ncc(-n3ccc(=O)cc3)c2O)nc1` [Example 191, N-benzyl-6-(5-hydroxy-4-(4-oxopyridin-1(4H)-yl)-1H-pyrazol-1-yl)nicotinamide], in assay [1], the “PHD Inhibition (pIC50)” value is recorded as 7.19. Also, the EC50 in assay [2] is 6760 nM.
As for `CCN1CCN(C(=O)c2ccc(-n3ncc(-c4ccc(C#N)c(F)c4C)c3O)nc2)[C@@H](C)C1` [Example 341, (S)-4-(1-(5-(4-ethyl-2-methylpiperazine-1-carbonyl)pyridin-2-yl)-5-hydroxy-1H-pyrazol-4-yl)-2-fluoro-3-methylbenzonitrile], the “PHD Inhibition (pIC50)” value in assay [1] is recorded as 8.47. Further, the EC50 in assay [2] is 589 nM.
Regarding `Cc1cc(C#N)ccc1-c1cnn(-c2ccc(C(=O)N[C@H]3CC[C@H](O)CC3)cn2)c1O` [Example 132, 6-(4-(4-cyano-2-methylphenyl)-5-hydroxy-1H-pyrazol-1-yl)-N-((1r,4r)-4-hydroxycyclohexyl)nicotinamide], in assay [1], the “PHD Inhibition (pIC50)” value was 7.26. In addition, the “Inhibition of PHD in cells (pEC50)” value in assay [2] was 6.59.
Take `Cc1cc(C#N)ccc1-c1cnn(-c2ccc(C(=O)N[C@H]3CC[C@H](O)CC3)cn2)c1O` [Example 139, 6-(4-(4-cyano-2-methylphenyl)-5-hydroxy-1H-pyrazol-1-yl)-N-((1r,4r)-4-hydroxycyclohexyl)nicotinamide]: the “PHD Inhibition (pIC50)” value in assay [1] is recorded as 7.36. The “Inhibition of PHD in cells (pEC50)” value in assay [2] is listed as 7.09.
For `CCN1CCN(C(=O)c2ccc(-n3ncc(-c4ccc(C#N)c(F)c4C)c3O)nc2)CC1` [Example 305, 4-(1-(5-(4-ethylpiperazine-1-carbonyl)pyridin-2-yl)-5-hydroxy-1H-pyrazol-4-yl)-2-fluoro-3-methylbenzonitrile], the “PHD Inhibition (pIC50)” value in assay [1] was determined as 8.27. In assay [2], the EC50 is 1320 nM.
Regarding `Cc1cc(C#N)ccc1-c1cnn(-c2ccc(C(=O)N3CCN(C(C)C)[C@H](C)C3)cn2)c1O` [Example 379, (R)-4-(5-hydroxy-1-(5-(4-isopropyl-3-methylpiperazine-1-carbonyl)pyridin-2-yl)-1H-pyrazol-4-yl)-3-methylbenzonitrile], the “PHD Inhibition (pIC50)” value in assay [1] is recorded as 8.20. In assay [2], the EC50 is 794 nM.
Regarding `N#Cc1ccc(-c2cnn(-c3ccc(C(=O)N[C@H]4CC[C@H](O)CC4)cn3)c2O)cc1` [Example 165, 6-(4-(4-cyanophenyl)-5-hydroxy-1H-pyrazol-1-yl)-N-((1r,4r)-4-hydroxycyclohexyl)nicotinamide], in assay [1], the “PHD Inhibition (pIC50)” value came out at 7.68. In addition, in assay [2], the EC50 was 251 nM.
In the case of `CC(C)OCCNC(=O)c1ccc(-n2ncc(-c3ccc(C#N)cc3)c2O)nc1` [Example 89, 6-(4-(4-cyanophenyl)-5-hydroxy-1H-pyrazol-1-yl)-N-(2-isopropoxyethyl)nicotinamide], the “PHD Inhibition (pIC50)” value in assay [1] is recorded as 7.24. In addition, in assay [2], the EC50 is 708 nM.
For `CCCN1CCC(NC(=O)c2ccc(-n3ncc(-c4ccnc(OC)c4)c3O)nc2)CC1` [Example 24, 6-(5-hydroxy-4-(2-methoxypyridin-4-yl)-1H-pyrazol-1-yl)-N-(1-propylpiperidin-4-yl)nicotinamide], the “PHD Inhibition (pIC50)” value in assay [1] was found to be 7.04. Besides, the EC50 in assay [2] is 10700 nM.
Turning to `COCCC1(NC(=O)c2ccc(-n3ncc(-c4ccnc(OC)c4)c3O)nc2)CC1` [Example 209, 6-(5-hydroxy-4-(2-methoxypyridin-4-yl)-1H-pyrazol-1-yl)-N-(1-(2-methoxyethyl)cyclopropyl)nicotinamide], in assay [1], the “PHD Inhibition (pIC50)” value stood at 6.98. Also, the EC50 in assay [2] is 398 nM.
Turning to `Cc1cc(C#N)ccc1-c1cnn(-c2ccc(C(=O)N3CCC4(CCN(C)C4)C3)cn2)c1O` (stereo not drawn) [Example 346, 4-(5-hydroxy-1-(5-(7-methyl-2,7-diazaspiro[4.4]nonane-2-carbonyl)pyridin-2-yl)-1H-pyrazol-4-yl)-3-methylbenzonitrile], the “PHD Inhibition (pIC50)” value in assay [1] turned out to be 7.75. The EC50 in assay [2] was 372 nM.
`COCCN1CCC(N(C)C(=O)c2ccc(-n3ncc(-c4ccc(C#N)cc4C)c3O)nc2)CC1` [Example 427, 6-(4-(4-cyano-2-methylphenyl)-5-hydroxy-1H-pyrazol-1-yl)-N-(1-(2-methoxyethyl)piperidin-4-yl)-N-methylnicotinamide]: the “PHD Inhibition (pIC50)” value in assay [1] is reported as 7.83. Moreover, the EC50 in assay [2] is 646 nM.
As to `Cc1cc(C#N)ccc1-c1cnn(-c2ccc(C(=O)NCCCN3CCCCC3)cn2)c1O` [Example 99, 6-(4-(4-cyano-2-methylphenyl)-5-hydroxy-1H-pyrazol-1-yl)-N-(3-(piperidin-1-yl)propyl)nicotinamide], in assay [1], the “PHD Inhibition (pIC50)” value was 7.9. In addition, the EC50 in assay [2] was 53.7 nM.
For `COC(C)(C)CNC(=O)c1ccc(-n2ncc(-c3ccc(C#N)cc3)c2O)nc1` [Example 55, 6-(4-(4-cyanophenyl)-5-hydroxy-1H-pyrazol-1-yl)-N-(2-methoxy-2-methylpropyl)nicotinamide], the “PHD Inhibition (pIC50)” value in assay [1] turned out to be 7.2. Moreover, the EC50 in assay [2] was 1860 nM.
For `Cc1cc(C#N)ccc1-c1cnn(-c2ccc(C(=O)N[C@H]3CCOC3)cn2)c1O` [Example 120, (S)-6-(4-(4-cyano-2-methylphenyl)-5-hydroxy-1H-pyrazol-1-yl)-N-(tetrahydrofuran-3-yl)nicotinamide], the “PHD Inhibition (pIC50)” value in assay [1] is recorded as 7.2. In addition, the EC50 in assay [2] is 102 nM.
With `CNCCCNC(=O)c1ccc(-n2ncc(-c3ccnc(OC)c3)c2O)nc1` [Example 42, 6-(5-hydroxy-4-(2-methoxypyridin-4-yl)-1H-pyrazol-1-yl)-N-(3-(methylamino)propyl)nicotinamide], the “PHD Inhibition (pIC50)” value in assay [1] came out at 7.5. The EC50 in assay [2] is 3390 nM.
`CNC(=O)c1cnc(-n2ncc(-c3ccc(C#N)cc3)c2O)cc1C` [Example 273, 6-(4-(4-cyanophenyl)-5-hydroxy-1H-pyrazol-1-yl)-N,4-dimethylnicotinamide]: the “PHD Inhibition (pIC50)” value in assay [1] is recorded as 7.06. The EC50 in assay [2] is 9330 nM.
As to `N#Cc1ccc(-c2cnn(-c3ccc(C(=O)N[C@H]4CC[C@H](O)C4)cn3)c2O)cc1` [Example 259, 6-(4-(4-cyanophenyl)-5-hydroxy-1H-pyrazol-1-yl)-N-((1s,3s)-3-hydroxycyclopentyl)nicotinamide], the “PHD Inhibition (pIC50)” value in assay [1] is on record as 7.39. Besides, in assay [2], the EC50 was 1000 nM.
For the molecule `CCNC(=O)c1cnc(-n2ncc(-c3ccc(C#N)cc3)c2O)cc1C` [Example 274, 6-(4-(4-cyanophenyl)-5-hydroxy-1H-pyrazol-1-yl)-N-ethyl-4-methylnicotinamide], in assay [1], the “PHD Inhibition (pIC50)” value is on record as 7.03. Moreover, in assay [2], the EC50 was 6460 nM.
`Cc1cc(C#N)ccc1-c1cnn(-c2ccc(C(=O)N3CCN(C)C4(CC4)C3)cn2)c1O` [Example 390, 4-(5-hydroxy-1-(5-(4-methyl-4,7-diazaspiro[2.5]octane-7-carbonyl)pyridin-2-yl)-1H-pyrazol-4-yl)-3-methylbenzonitrile]: the “PHD Inhibition (pIC50)” value in assay [1] is 8.29. Further, in assay [2], the EC50 is 955 nM.
